Assay results published in patent US20050065071A1, “Cyclic analogs of human parathyroid hormone for the treatment of conditions characterized by hyperproliferative skin cells” (National Research Council of Canada, priority 2003, published 2005).
Bridges are numbered along the chain shown (N, C = ends). Where no end group is shown, it is not given here.

Test system: skin cells
Assay: Topical administration to SKH-1 hairless mice, skin cell proliferation by ^3H-thymidine incorporation
Format: in vivo
Conditions: 1 μg, 10 μg or 50 μg once a day, 7 days, analog given with Novasome, compared with hPTH-(1-34) and untreated control (FIG. 6)
Method: FIG. 6 is a histogram showing the effects of no treatment (Control) or of topical administration of 1 μg, 10 μg, or 50 μg of hPTH-(1-34) (1-34) or [Leu^27]cyclo(Glu^22-Lys^26)-hPTH-(1-31)-NH2 (c1-c31) to SKH-1 mice on the proliferation of skin cells, as measured by ^3H-thymidine incorporation (counts per minute/μg protein) in SKH-1 mice after 7 days of administration.
SKH-1 hairless mice were administered the human parathyroid hormone hPTH analog [Leu^27]cyclo(Glu^22-Lys^26)-hPTH-(1-31)-NH2 with Novasome (a liposomal formulation available, for example, from IGI, Inc., Buena, N.J.) or hPTH-(1-34) at dosages of 1 μg, 10 μg, or 50 μg once a day, or were left untreated (control). On day 7, the mice were injected twice with ^3H-thymidine, and on day 8, the mice were injected with ^3H-thymidine and bromodeoxyuridine (1.5 mg/mouse) and sacrificed within 3 hours. ^3H-thymidine incorporation was then assessed, using standard methods. The results of this study are shown in FIG. 6, which is a histogram showing the effects of no treatment (Control) or of topical administration of 1 μg, 10 μg, or 50 μg of hPTH-(1-34) (1-34) or [Leu^27]cyclo(Glu^22-Lys^26)-hPTH-(1-31)-NH2 (c1-c31) on proliferation of skin cells, as measured by ^3H-thymidine incorporation (counts per minute/μg protein) in SKH-1 mice. […]

Substance | proliferation of skin cells, as measured by ^3H-thymidine incorporation
[Leu^27]cyclo(Glu^22-Lys^26)-hPTH-(1-31)-NH2 (SVSEIQLMHNLGKHLNSMERVEWLRKLLQDV-NH2; lactam 22-26; N-terminus assumed; SMILES CC[C@H](C)[C@H](NC(=O)[C@H](CCC(=O)O)NC(=O)[C@H](CO)NC(=O)[C@@H](NC(=O)[C@@H](N)CO)C(C)C)C(=O)N[C@@H](CCC(N)=O)C(=O)N[C@@H](CC(C)C)C(=O)N[C@@H](CCSC)C(=O)N[C@@H](Cc1c[nH]cn1)C(=O)N[C@@H](CC(N)=O)C(=O)N[C@@H](CC(C)C)C(=O)NCC(=O)N[C@@H](CCCCN)C(=O)N[C@@H](Cc1c[nH]cn1)C(=O)N[C@@H](CC(C)C)C(=O)N[C@@H](CC(N)=O)C(=O)N[C@@H](CO)C(=O)N[C@@H](CCSC)C(=O)N[C@@H](CCC(=O)O)C(=O)N[C@@H](CCCNC(=N)N)C(=O)N[C@H](C(=O)N[C@H]1CCC(=O)NCCCC[C@@H](C(=O)N[C@@H](CC(C)C)C(=O)N[C@@H](CC(C)C)C(=O)N[C@@H](CCC(N)=O)C(=O)N[C@@H](CC(=O)O)C(=O)N[C@H](C(N)=O)C(C)C)NC(=O)[C@H](CCCNC(=N)N)NC(=O)[C@H](CC(C)C)NC(=O)[C@H](Cc2c[nH]c3ccccc23)NC1=O)C(C)C) | significantly more effective at inhibiting ^3H-thymidine incorporation than hPTH-(1-34)
cyclo(Lys^26-Asp^30) [Leu^27]-hPTH-(1-31)-NH2 | Decreases Skin Cell Proliferation
